# Target: T1, angiotensin converting enzyme (ACE) (Oryctolagus cuniculus, UniProt P12822)
# T1 construct: The ACE was extracted from rabbit lung acetane powder; tissue Pel-Freez, Biol. Inc; host or cells: rabbit lung acetone powder, 40,000 g supernatant used as crude extract
# T1 sequence (P12822 34-1310): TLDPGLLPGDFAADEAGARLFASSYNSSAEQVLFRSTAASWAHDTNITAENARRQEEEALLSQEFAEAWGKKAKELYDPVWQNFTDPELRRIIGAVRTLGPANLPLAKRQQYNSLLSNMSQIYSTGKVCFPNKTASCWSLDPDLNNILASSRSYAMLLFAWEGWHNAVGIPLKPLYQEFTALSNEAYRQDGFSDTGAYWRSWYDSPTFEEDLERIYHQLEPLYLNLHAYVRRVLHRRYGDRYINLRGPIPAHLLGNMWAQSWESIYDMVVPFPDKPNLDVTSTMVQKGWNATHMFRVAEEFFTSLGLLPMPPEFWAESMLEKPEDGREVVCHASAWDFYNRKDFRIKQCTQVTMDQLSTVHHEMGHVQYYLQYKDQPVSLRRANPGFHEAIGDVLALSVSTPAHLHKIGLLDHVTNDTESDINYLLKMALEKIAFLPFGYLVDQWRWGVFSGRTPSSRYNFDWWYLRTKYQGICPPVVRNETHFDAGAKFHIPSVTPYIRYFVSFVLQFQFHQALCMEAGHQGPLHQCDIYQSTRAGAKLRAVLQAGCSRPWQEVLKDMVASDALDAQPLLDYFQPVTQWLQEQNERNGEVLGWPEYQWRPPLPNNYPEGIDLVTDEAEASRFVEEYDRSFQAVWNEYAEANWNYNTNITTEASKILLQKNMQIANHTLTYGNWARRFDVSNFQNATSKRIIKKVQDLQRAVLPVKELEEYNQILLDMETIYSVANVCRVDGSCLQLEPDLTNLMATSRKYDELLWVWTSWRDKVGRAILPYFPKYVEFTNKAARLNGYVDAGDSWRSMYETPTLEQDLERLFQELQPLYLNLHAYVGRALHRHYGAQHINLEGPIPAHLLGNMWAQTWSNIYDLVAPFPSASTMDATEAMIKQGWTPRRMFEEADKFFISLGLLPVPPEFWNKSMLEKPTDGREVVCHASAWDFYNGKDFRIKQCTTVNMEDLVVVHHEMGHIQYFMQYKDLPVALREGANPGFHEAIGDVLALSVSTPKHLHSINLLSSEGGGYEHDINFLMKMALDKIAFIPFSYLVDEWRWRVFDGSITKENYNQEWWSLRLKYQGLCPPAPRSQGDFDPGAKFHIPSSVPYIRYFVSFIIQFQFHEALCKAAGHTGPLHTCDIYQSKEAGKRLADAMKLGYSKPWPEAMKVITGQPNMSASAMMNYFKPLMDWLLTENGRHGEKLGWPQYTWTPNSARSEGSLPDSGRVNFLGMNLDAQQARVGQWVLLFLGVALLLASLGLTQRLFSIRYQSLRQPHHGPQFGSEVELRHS
# Assay: Spectrophotometric Assay for Angiotensin Converting Enzyme Inhibitors (in vitro inhibition of ACE, benzoyl-glycyl-histidyl-leucine substrate)
# Type: biochemical
# Conditions: crude ACE extract from rabbit lung; 30 minutes at 37° C.; hippuric acid absorbance at 228 nm
# Protocol: Spectrophotometric Assay for Angiotensin Converting Enzyme Inhibitors
# The in vitro activity for inhibition of the angiotensin converting enzyme (ACE) was measured by the method of Cushman, D. W. and Cheung, H. S., Biochem. Pharmacol., 20, 1637-1648 (1971), using benzoyl-glycyl-histidyl-leucine as the substrate. The reaction mixture consisted of 50 μl. of potassium phosphate (500 mM., […]), 30 μl. of sodium chloride (2500 mM.), 25 μl. of substrate (50 mM.), 30 to 50 μl. of the crude extract of ACE, 10 μl. of test compound (2.5 mM.) or vehicle and a suitable amount of distilled water to give a total volume of 250 μl. This reaction mixture was incubated for 30 minutes at 37° C. and the reaction was then terminated by the addition of 250 μl. of 1 N hydrochloric acid. The hippuric acid was then extracted with 1.5 ml. of ethyl acetate by vortex mixing for 15 seconds. After centrifugation, one ml. of the ethyl acetate layer was pipetted into a new tube and evaporated to dryness. The extracted hippuric acid was then dissolved in one ml. of water and the amount of this acid was then measured by its absorbance at 228 nm. The ACE was extracted from rabbit lung acetane powder (Pel-Freez, Biol. Inc.) by blending 5 g. of the powder in 50 ml. of phosphate buffer (50 mM., pH 8.3) and then centrifuging at 40,000 g for 40 minutes. The supernatant was then kept at 5° C. and used as the enzyme source. The activity of the ACE inhibitor was calculated as the percent inhibition of ACE activity compared to the control value of that particular assay. A full dose-response inhibitory curve is then performed to determine the IC50 value which may be defined as the molar concentration of a compound that will inhibit ACE activity by 50%.
row,SMILES,IC50 [µM]
1,"CC(=O)SC(C(=O)c1ccccc1)[C@@H](C)C(=O)N1CSC[C@H]1C(=O)O (stereo partly drawn) [[4R-(4R*,2'S*)]-3-(3-Acetylthio-3-benzoyl-2-methylpropionyl)-4-thiazolidinecarboxylic acid]",0.067
2,"CC(=O)SC(CC(=O)N1CSC[C@H]1C(=O)OCc1c(C)cc(C)cc1C)C(=O)c1ccc(F)cc1 (stereo partly drawn) [[4R]-3-[3-Acetylthio-3-(4-fluorobenzoyl)propionyl]-4-thiazolidinecarboxylicacid, 2,4,6-trimethylbenzyl ester]",16.8
3,CC(=O)SC(CC(=O)c1ccccc1)C(=O)N1CSC[C@H]1C(=O)O (stereo partly drawn) [[4R]-3-(2-Acetylthio-3-benzoylpropionyl)-4-thiazolidinecarboxylic acid],8.4
